Assay results as given in patent US10201623B2, “HSP90-targeted cardiac imaging and therapy” (Memorial Sloan-Kettering Cancer Center, priority 2013, dated 2019).

How the values were obtained:
[1] = test system: heart muscle; test: 124I-PUH71 PET-CT cardiac imaging in patients; type: in vivo, human
Experimental: Exemplary Procedure Using ^124I-PUH71 (Compound A) The day before the administration of ^124I-PUH71, potassium iodide was administered to the subject to be imaged to minimize the amount of radioactivity in the thyroid. A dose of KI was administered before ^124I-PUH71 was injected in the vein of the arm of the subject through a catheter. A subject was typically administered one tracer-dose of ^124I-PUH71 5% ethanol and 0.9% NaCl, which is < 1/500th of the NOAEL limit derived from rodents using the cold PUH71. A dose of up to 5.5 mCi of ^124I-PUH71 were administered intravenously. ^124I-PUH71 scans were performed immediately, at 3-4 hours, 20-24 hours, and 48-72 hours after injection of the radiotracer. A 30-45 minute scanning time-period is typical for clinical PET studies. Image was acquired on a PET-CT scanner. A low-dose CT was obtained immediately prior to PET imaging; the 0-hour CT is applied to the three PET datasets rapidly-acquired during the first 30 minutes post-injection. Uptake of the PUH71 by heart muscle in 12 patients are illustrated in FIG. 2. The cardiac uptake is plotted on the y-axis, expressed in terms of the standardized uptake value (SUV), here using the SUV mean parameter. The time after injection is plotted on the x-axis, in minutes. Data shown here is from PET scans obtained 0, 10, 20 and ˜180 minutes after tracer injection. […] In 1 patient, the cardiac uptake was less distinct, but the PET imaging methodology was suboptimal compared to the other studies. […] EKG-synchronization, or ‘EKG-gating’, is standard practice in cardiac imaging, for improving the quality of heart-imaging, and it is expected that results will further improve after EKG gating is added. Without intention to be limited by theory, the bits of variation in the SUV could be due to (1) the lack of EKG-gating and (2) the lack of proper attenuation correction. […] The EKG-gating and attenuation correction techniques are standard practice in cardiac nuclear imaging art.

[2] = test system: Hsp90; test: saturation binding of 131I-PU-H71 in prostate cancer cell lines; settings: several prostate cancer cell lines
[3] = stability of 124I-PUH71 in formulation; type: physicochemical; settings: formulated in 5% ethanol in saline (0.9%)
Description: ^124I-PUH71 was produced in formulation. The radioactive half-life is 4.2 days.

[4] = test system: MDA-MB-468 human breast cancer tumors; test: micro PET of 124I-PUH71 in mice bearing MDA-MB-468 tumors; type: in vivo
Experimental: FIG. 4: [^124I]-PUH71 PET in mice bearing a xenografted tumor. a) Representative PET scan of [^124I]-PUH71 in MDA-MB-468 tumor-bearing mice. Location of the tumor is indicated by a red arrow. […] Representative data is shown.
We injected mice bearing MDA-MB-468 human breast cancer tumors with trace amounts of ^124I-PUH71, and imaged with the micro PET at 1, 4 and 24 hours post injection. […] The results are illustrated in FIG. 4.

[5] = patients, single iv tracer injection, PET-CT

CC(C)NCCCn1c(Sc2cc3c(cc2I)OCO3)nc2c(N)ncnc21 [Compound A]
patients whose heart musculature demonstrated visually-distinct uptake ([1]; PET scans 0, 10, 20 and ~180 minutes after tracer injection, no EKG-gating): 11 out of 12
clearance from the bloodstream ([1]; human): rapid clearance
absorption and retention in the human heart ([1]; human heart): rapid absorption and sustained retention
persistence of visually-distinct cardiac uptake [1, 5]: 3 to 4 h
time after injection at which uptake in the heart is maximized [1, 5]: less than 10 minutes
time for which cardiac signal intensity is maintained [1, 5]: ≥ 3 h

CC(C)NCCCn1c(Sc2cc3c(cc2[131I])OCO3)nc2c(N)ncnc21 [^131I-PUH71]
selectivity of binding to Hsp90 [2]: bound, selectively
Bmax ([2]; saturable binding): 3 to 7 million sites, per cell

CC(C)NCCCn1c(Sc2cc3c(cc2[124I])OCO3)nc2c(N)ncnc21 [^124I-PUH71]
stability in formulation [3]: stable, in formulation, for several days
clearance from the healthy heart ([4]; MDA-MB-468 tumor-bearing mice, heart and blood pool similar profile): rapid clearance
uptake in the heart (PET) ([4]; MDA-MB-468 tumor-bearing mice, no cardiac disease expected): no distinct uptake
retention in tumors ([4]; micro PET at 1, 4 and 24 hours post injection): retained in tumors even at 24 h p.i.
route of clearance of excess radioligand ([4]; tumor-bearing mice): cleared via the liver and GI tract
